In patent publication US12234220B2, “Immunomodulatory compounds” (DANA-FARBER CANCER INSTITUTE, INC., priority 2018, dated 2025):
Where two headings read alike, the source gives them in different places.

Molecular target: DDB1AB-CRBN (Homo sapiens, UniProt Q96SW2)
Experiment: Lenalidomide displacement assay (Atto565-Lenalidomide fluorescence polarization)
Assay type: binding
Conditions: for Ki: calculated from IC50 with probe Kd of 40 nM, competitive model, read-out: CRBN Binding Ki; for binding affinity with CRBN, in words: fluorescence polarization assay, compared to lenalidomide control, FIG. 1A
Procedure: Compound titrations were incubated for 60 min at RT. The change in fluorescence polarization was monitored using a PHERAstar® FS microplate reader (BMG Labtech) for 1 h in 120 s cycles.

[1] = Table 1, n=2, 10 nM Atto565-Lenalidomide probe, 100 nM DDB1AB-CRBN, read-out: CRBN Binding IC50
[2] = Table 1, n=2, 10 nM Atto565-Lenalidomide probe, 100 nM DDB1AB-CRBN
[3] = refers to Tables 1 and 2, FIG. 1A/1B, read-out: IC50

Sequence of DDB1AB-CRBN (Q96SW2 whole entry): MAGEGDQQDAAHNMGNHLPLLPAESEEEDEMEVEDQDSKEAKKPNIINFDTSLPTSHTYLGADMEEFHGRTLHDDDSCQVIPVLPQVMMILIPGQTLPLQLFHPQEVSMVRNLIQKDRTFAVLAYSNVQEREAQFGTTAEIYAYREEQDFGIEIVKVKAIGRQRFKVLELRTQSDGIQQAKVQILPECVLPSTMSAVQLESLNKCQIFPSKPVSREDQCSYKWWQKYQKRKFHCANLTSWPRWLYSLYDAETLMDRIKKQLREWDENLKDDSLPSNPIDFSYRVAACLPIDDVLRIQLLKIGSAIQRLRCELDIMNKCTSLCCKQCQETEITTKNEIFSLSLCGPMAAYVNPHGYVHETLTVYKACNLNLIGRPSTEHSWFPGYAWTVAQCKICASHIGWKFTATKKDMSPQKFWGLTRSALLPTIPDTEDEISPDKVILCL

Row | Ki (Table 1) | IC50 [1] | SMILES | further results
1 |  |  | O=C1CCC(NC(=O)c2ccc(OCc3ccc(CN4CCOCC4)cc3)cn2)C(=O)N1 (stereo not drawn) [Compound 11, N-(2,6-dioxopiperidin-3-yl)-5-((4-(morpholinomethyl)benzyl)oxy)picolinamide] | CRBN Binding, probe displacement at single concentration (at 100 μM): 50% at 100 μM
2 | 5 µM | 17.5 µM | Nc1cnc2c(C(=O)NC3CCC(=O)NC3=O)cccc2c1 (stereo not drawn) [Compound 25, 3-Amino-N-(2,6-dioxopiperidin-3-yl)quinoline-8-carboxamide] | 
3 | 15.7 µM | 55 µM | O=C1CCC(NC(=O)c2cccc(OCc3ccccc3)n2)C(=O)N1 (stereo not drawn) [Compound 1, 6-(benzyloxy)-N-(2,6-dioxopiperidin-3-yl)picolinamide] | 
4 | 4 µM | 14 µM | O=C1CCC(NC(=O)c2cccc3cccnc23)C(=O)N1 (stereo not drawn) [Compound 8, N-(2,6-dioxopiperidin-3-yl)quinoline-8-carboxamide] | 
5 |  |  | O=C1CCC(NC(=O)Nc2ccc(O)cn2)C(=O)N1 (stereo not drawn) [Compound 28, 1-(2,6-Dioxopiperidin-3-yl)-3-(5-hydroxypyridin-2-yl)urea] | CRBN Binding IC50 [2]: inactive
6 | 15 µM | 53 µM | O=C1CCC(NC(=O)c2cccn(Cc3ccccc3)c2=O)C(=O)N1 (stereo not drawn) [Compound 22, 1-Benzyl-N-(2,6-dioxopiperidin-3-yl)-2-oxo-1,2-dihydropyridine-3-carboxamide] | 
7 |  |  | O=C1CCC(NC(=O)c2cc(Cl)ccn2)C(=O)N1 (stereo not drawn) [Compound 4, 4-chloro-N-(2,6-dioxopiperidin-3-yl)picolinamide] | CRBN Binding, probe displacement at single concentration (at 100 μM): 30% at 100 μM; binding affinity with CRBN, in words: moderate binding affinity
8 | 2.2 µM |  | Nc1ccnc2c(C(=O)NC3CCC(=O)NC3=O)cccc12 (stereo not drawn) [Compound 24, 4-Amino-N-(2,6-dioxopiperidin-3-yl)quinoline-8-carboxamide] | IC50 [3]: 7.7 µM
9 |  |  | Nc1ccc(NC(=O)NC2CCC(=O)NC2=O)nc1 (stereo not drawn) [Compound 27, 1-(5-aminopyridin-2-yl)-3-(2,6-dioxopiperidin-3-yl)urea] | CRBN Binding, probe displacement at single concentration (at 100 μM): 50% at 100 μM
10 |  |  | O=C1CCC(NC(=O)c2cccc3c(O)ccnc23)C(=O)N1 (stereo not drawn) [Compound 26, N-(2,6-dioxopiperidin-3-yl)-4-hydroxyquinoline-8-carboxamide] | CRBN Binding, probe displacement at single concentration (at 100 μM): 50% at 100 μM; probe displacement (at 100 μM): 50%
11 |  |  | O=C1CCC(NC(=O)Nc2cccc3c2NCC3)C(=O)N1 (stereo not drawn) [Compound 29, 1-(2,6-Dioxopiperidin-3-yl)-3-(indolin-7-yl)urea] | CRBN Binding IC50 [2]: inactive
12 |  |  | COc1cccc(C(=O)NC2CCC(=O)NC2=O)n1 (stereo not drawn) [Compound 6, N-(2,6-dioxopiperidin-3-yl)-6-methoxypicolinamide] | CRBN Binding IC50 [2]: Inactive
13 | 0.8 µM |  | Nc1ccc(C(=O)NC2CCC(=O)NC2=O)c2ncccc12 (stereo not drawn) [Compound 23, 5-Amino-N-(2,6-dioxopiperidin-3-yl) quinoline-8-carboxamide] | IC50 [3]: 2.9 µM
14 | 20.6 µM | 72 µM | O=C1CCC(NC(=O)c2cccn(-c3ccccc3)c2=O)C(=O)N1 (stereo not drawn) [Compound 21, N-(2,6-dioxopiperidin-3-yl)-2-oxo-1-phenyl-1,2-dihydropyridine-3-carboxamide] | 
15 |  |  | O=C1CCC(NC(=O)c2cccc3c2NCC3)C(=O)N1 (stereo not drawn) [Compound 30, N-(2,6-dioxopiperidin-3-yl)indoline-7-carboxamide] | CRBN Binding, probe displacement at single concentration (at 100 μM): 50% at 100 μM
16 | 15 µM | 53 µM | O=C1CCC(NC(=O)c2ccc[nH]c2=O)C(=O)N1 (stereo not drawn) [Compound 19, N-(2,6-dioxopiperidin-3-yl)-2-oxo-1,2-dihydropyridine-3-carboxamide] | 
17 | 10.7 µM | 37.6 µM | O=C1CCC(NC(=O)c2cccc3nc[nH]c23)C(=O)N1 (stereo not drawn) [Compound 31, N-(2,6-dioxopiperidin-3-yl)-1H-benzo[d]imidazole-4-carboxamide] | 
18 | 8.3 µM | 29 µM | O=C1CCC(NC(=O)c2ccnc(OCc3ccccc3)n2)C(=O)N1 (stereo not drawn) [Compound 7, 2-(benzyloxy)-N-(2,6-dioxopiperidin-3-yl)pyrimidine-4-carboxamide] | 
19 | 32.5 µM | 113 µM | O=C1CCC(NC(=O)c2ccnc(NCc3ccccc3)n2)C(=O)N1 (stereo not drawn) [Compound 5, 2-(benzylamino)-N-(2,6-dioxopiperidin-3-yl)pyrimidine-4-carboxamide] | binding affinity with CRBN, in words: moderate binding affinity
20 |  |  | Nc1cccc(C(=O)NC2CCC(=O)NC2=O)n1 (stereo not drawn) [Compound 3, 6-amino-N-(2,6-dioxopiperidin-3-yl)picolinamide] | CRBN Binding, probe displacement at single concentration (at 100 μM): 30% at 100 μM; binding affinity with CRBN, in words: moderate binding affinity
21 | 11.4 µM | 40 µM | O=C1CCC(NC(=O)c2cccc(OCc3ccc(CN4CCOCC4)cc3)n2)C(=O)N1 (stereo not drawn) [Compound 32, N-(2,6-dioxopiperidin-3-yl)-6-((4-(morpholinomethyl)benzyl)oxy)picolinamide] | 
22 | 66 µM | 231 µM | Cn1cccc(C(=O)NC2CCC(=O)NC2=O)c1=O (stereo not drawn) [Compound 20, N-(2,6-dioxopiperidin-3-yl)-1-methyl-2-oxo-1,2-dihydropyridine-3-carboxamide] | 
